Consider 25 molecules from patent publication US7541368B2, “Pyrazoles as inhibitors of tumor necrosis factor” (Aventis Pharmaceuticals Inc., priority 2003, dated 2009).

The subject of this experiment is TNF-alpha release in THP-1 cells. Nature of the experiment: LPS-induced TNF-alpha release in THP-1 cells. The experiment is classed as cell-based. Conditions: Homo sapiens, THP-1, LPS-stimulated THP-1 cells; read-out: 50% inhibition in the LPS-induced TNF-alpha release in THP-1 cells assay at concentrations within the range. Here is the method:
The effects of compounds on TNF-alpha production by lipopolysaccharide (LPS)-stimulated […] monocytes were examined as follows.
Undifferentiated THP-1 cells were maintained in RPMI 1640 with Glutamax I containing β-mercaptoethananol (50 μM) and foetal calf serum (FCS-10%) at densities of about 1×10^6 cells per ml. For incubations without and with test reagents, cells were seeded at the indicated densities under serum-deprived (1% FCS) conditions. Compounds were dissolved in dimethylsulfoxide (DMSO-100%) and incubated with the cells to give a fmal DMSO concentration of 0.3%. Control and untreated cell samples were incubated with DMSO (0.3%).
THP-1 cells (1×10 ^6 cells/ml, total volume 150 μl) in culture medium were incubated for 1 hour (5% CO2, 37° C.) with fresh medium containing compounds or vehicle (0.1-0.3% dimethylsulfoxide). LPS (20 μg/ml) was then added to the cells and the incubation continued for a fuirther 18 hours. Cell supernatants were removed into 96 well plates for storage at −20° C.
TNF-alpha concentrations in cell supernatants were quantified by sandwich ELISA. Briefly, ELISA plates were coated overnight with 2 μg/ml of mouse anti-human TNF-alpha antibody in bicarbonate buffer (pH 9.9). After washing the wells with wash buffer (0.05% (v/v) Tween in PBS)and blocking unoccupied sites (1% BSA in wash buffer), monocyte supernatant samples or human recombinant TNF-alpha standards were added into the corresponding wells of the ELISA plate at 1:10 dilution. Biotinylated rabbit polyclonal anti-human TNF-alpha antibody (3 μg/ml) was used as the second antibody and streptavidin-horseradish peroxidase was used as the detection antibody. The peroxidase substrate is 3,3′,5,5′-tetramethylbenzidine (TMB) in the presence of hydrogen peroxide.
TNFα concentrations in supernatants from control and LPS-stimulated monocyte incubations were calculated by interpolation from a standard (log/log) curve (0.125-16 ng/ml) fitted by Excel Fit using the Activity Base software. Compounds were tested within the concentration range of 1×10^−9M to 1×10^−6M.
`CO[C@H](C(=O)N1CCC(Cc2ccc(NC(=O)Nc3cc(C(C)(C)C)nn3-c3ccc(C)cc3)cc2)CC1)c1ccccc1` [Compound A193, 1-(5-tert-Butyl-2-p-tolyl-2H-pyrazol-3-yl)-3-{4-[1-((S)-2-methoxy-2-phenyl-acetyl)-piperidin-4-ylmethyl]-phenyl}-urea]: the IC50 was in the range of 10 to 500 nM. On to `Cc1ccc(-n2nc(C(C)(C)C)cc2NC(=O)Nc2ccc(CC3CCN(C(=O)c4csnn4)CC3)cc2)cc1` [Compound A196, 1-(5-tert-Butyl-2-p-tolyl-2H-pyrazol-3-yl)-3-{4-[1-([1,2,3]thiadiazole-4-carbonyl)-piperidin-4-ylmethyl]-phenyl}-urea], for which the IC50 was 10 to 500 nM. For the molecule `Cc1ccc(-n2nc(C(C)(C)C)cc2NC(=O)Nc2ccc(CC3CCN(C(=O)c4ccc5cnccc5n4)CC3)cc2)cc1` [Compound A197, 1-(5-tert-Butyl-2-p-tolyl-2H-pyrazol-3-yl)-3-{4-[1-([1,6]naphthyridine-2-carbonyl)-piperidin-4-ylmethyl]-phenyl}-urea], the IC50 lay within 10 to 500 nM. To `Cc1ccc(-n2nc(C(C)(C)C)cc2NC(=O)Nc2ccc(CC3CCN(C(=O)C4(C)CC4)CC3)cc2)cc1` [Compound A206, 1-(5-tert-Butyl-2-p-tolyl-2H-pyrazol-3-yl)-3-{4-[1-(1-methyl-cyclopropanecarbonyl)-piperidin-4-ylmethyl]-phenyl}-urea] belongs 10 to 500 nM; to `COc1cccc(C(=O)N2CCC(Cc3ccc(NC(=O)Nc4cc(C(C)(C)C)nn4-c4ccc(C)cc4)cc3)CC2)c1OC` [Compound A212, 1-(5-tert-Butyl-2-p-tolyl-2H-pyrazol-3-yl)-3-{4-[1-(2,3-dimethoxy-benzoyl)-piperidin-4-ylmethyl]-phenyl}-urea], 10 to 500 nM. To `COc1cccc(CC(=O)N2CCC(Cc3ccc(NC(=O)Nc4cc(C(C)(C)C)nn4-c4ccc(C)cc4)cc3)CC2)c1OC` [Compound A213, 1-(5-tert-Butyl-2-p-tolyl-2H-pyrazol-3-yl)-3-(4-{1-[2-(2,3-dimethoxy-phenyl)-acetyl]-piperidin-4-ylmethyl}-phenyl)-urea] belongs 10 to 500 nM. In the case of `COc1cc(OC)c(C(=O)N2CCC(Cc3ccc(NC(=O)Nc4cc(C(C)(C)C)nn4-c4ccc(C)cc4)cc3)CC2)c(OC)c1` [Compound A215, 1-(5-tert-Butyl-2-p-tolyl-2H-pyrazol-3-yl)-3-{4-[1-(2,4,6-trimethoxy-benzoyl)-piperidin-4-ylmethyl]-phenyl}-urea], the IC50 was in the range of 10 to 500 nM.

In the case of `Cc1ccc(-n2nc(C(C)(C)C)cc2NC(=O)Nc2ccc(CC3CCN(C(=O)c4c(C)cc(C)cc4C)CC3)cc2)cc1` [Compound A216, 1-(5-tert-Butyl-2-p-tolyl-2H-pyrazol-3-yl)-3-{4-[1-(2,4,6-trimethyl-benzoyl)-piperidin-4-ylmethyl]-phenyl}-urea], the IC50 lay within 10 to 500 nM. For the molecule `Cc1ccc(-n2nc(C(C)(C)C)cc2NC(=O)Nc2ccc(CC3CCN(C(=O)c4cc(C)oc4C)CC3)cc2)cc1` [Compound A222, 1-(5-tert-Butyl-2-p-tolyl-2H-pyrazol-3-yl)-3-{4-[1-(2,5-dimethyl-furan-3-carbonyl)-piperidin-4-ylmethyl]-phenyl}-urea], the IC50 was in the range of 10 to 500 nM.

With `COc1ccc(C(=O)N2CCC(Cc3ccc(NC(=O)Nc4cc(C(C)(C)C)nn4-c4ccc(C)cc4)cc3)CC2)c(OC)n1` [Compound A224, 1-(5-tert-Butyl-2-p-tolyl-2H-pyrazol-3-yl)-3-{4-[1-(2,6-dimethoxy-pyridine-3-carbonyl)-piperidin-4-ylmethyl]-phenyl}-urea], the IC50 was in the range of 10 to 500 nM. To `Cc1ccc(-n2nc(C(C)(C)C)cc2NC(=O)Nc2ccc(CC3CCN(C(=O)c4csc(-c5cccnc5)n4)CC3)cc2)cc1` [Compound A225, 1-(5-tert-Butyl-2-p-tolyl-2H-pyrazol-3-yl)-3-{4-[1-(2-pyridin-3-yl-thiazole-4-carbonyl)-piperidin-4-ylmethyl]-phenyl}-urea] belongs 10 to 500 nM; to `Cc1ccc(-n2nc(C(C)(C)C)cc2NC(=O)Nc2ccc(CC3CCN(C(=O)c4csc(-c5ccncc5)n4)CC3)cc2)cc1` [Compound A227, 1-(5-tert-Butyl-2-p-tolyl-2H-pyrazol-3-yl)-3-{4-[1-(2-pyridin-4-yl-thiazole-4-carbonyl)-piperidin-4-ylmethyl]-phenyl}-urea], 10 to 500 nM; to `Cc1ccc(-n2nc(C(C)(C)C)cc2NC(=O)Nc2ccc(CC3CCN(C(=O)c4cccnc4N)CC3)cc2)cc1` [Compound A231, 1-{4-[1-(2-Amino-pyridine-3-carbonyl)-piperidin-4-ylmethyl]-phenyl}-3-(5-tert-butyl-2-p-tolyl-2H-pyrazol-3-yl)-urea], 10 to 500 nM. For `Cc1ccc(-n2nc(C(C)(C)C)cc2NC(=O)Nc2ccc(CC3CCN(C(=O)c4cc5ccccc5o4)CC3)cc2)cc1` [Compound A232, 1-{4-[1-(Benzofuran-2-carbonyl)-piperidin-4-ylmethyl]-phenyl}-3-(5-tert-butyl-2-p-tolyl-2H-pyrazol-3-yl)-urea], the IC50 lay in the range of 10 to 500 nM.

Consider `Cc1ccc(-n2nc(C(C)(C)C)cc2NC(=O)Nc2ccc(CC3CCN(C(=O)c4ccc(S(C)(=O)=O)cc4Cl)CC3)cc2)cc1` [Compound A233, 1-(5-tert-Butyl-2-p-tolyl-2H-pyrazol-3-yl)-3-{4-[1-(2-chloro-4-methanesulfonyl-benzoyl)-piperidin-4-ylmethyl]-phenyl}-urea], for which the IC50 fell in the range of 10 to 500 nM.

Take `Cc1ccc(-n2nc(C(C)(C)C)cc2NC(=O)Nc2ccc(CC3CCN(C(=O)c4cccnc4Cl)CC3)cc2)cc1` [Compound A235, 1-(5-tert-Butyl-2-p-tolyl-2H-pyrazol-3-yl)-3-{4-[1-(2-chloro-pyridine-3-carbonyl)-piperidin-4-ylmethyl]-phenyl}-urea]: the IC50 lay in the range of 10 to 500 nM.

Consider `Cc1ccc(-n2nc(C(C)(C)C)cc2NC(=O)Nc2ccc(CC3CCN(C(=O)Cc4ccccc4F)CC3)cc2)cc1` [Compound A236, 1-(5-tert-Butyl-2-p-tolyl-2H-pyrazol-3-yl)-3-(4-{1-[2-(2-fluoro-phenyl)-acetyl]-piperidin-4-ylmethyl}-phenyl)-urea], for which the IC50 fell in the range of 10 to 500 nM. To `Cc1ccc(-n2nc(C(C)(C)C)cc2NC(=O)Nc2ccc(CC3CCN(C(=O)c4ccco4)CC3)cc2)cc1` [Compound A237, 1-(5-tert-Butyl-2-p-tolyl-2H-pyrazol-3-yl)-3-{4-[1-(furan-2-carbonyl)-piperidin-4-ylmethyl]-phenyl}-urea] belongs 10 to 500 nM; to `CCCCC#CC(=O)N1CCC(Cc2ccc(NC(=O)Nc3cc(C(C)(C)C)nn3-c3ccc(C)cc3)cc2)CC1` [Compound A238, 1-(5-tert-Butyl-2-p-tolyl-2H-pyrazol-3-yl)-3-[4-(1-hept-2-ynoyl-piperidin-4-ylmethyl)-phenyl]-urea], 10 to 500 nM. Consider `Cc1ccc(-n2nc(C(C)(C)C)cc2NC(=O)Nc2ccc(CC3CCN(C(=O)c4cc(O)nc5ccccc45)CC3)cc2)cc1` [Compound A240, 1-(5-tert-Butyl-2-p-tolyl-2H-pyrazol-3-yl)-3-{4-[1-(2-hydroxy-quinoline-4-carbonyl)-piperidin-4-ylmethyl]-phenyl}-urea], for which the IC50 was 10 to 500 nM. To `Cc1ccc(-n2nc(C(C)(C)C)cc2NC(=O)Nc2ccc(CC3CCN(C(=O)c4cc5cnccc5nc4C)CC3)cc2)cc1` [Compound A243, 1-(5-tert-Butyl-2-p-tolyl-2H-pyrazol-3-yl)-3-{4-[1-(2-methyl-[1,6]naphthyridine-3-carbonyl)-piperidin-4-ylmethyl]-phenyl}-urea] belongs 10 to 500 nM.

Regarding `Cc1ccc(-n2nc(C(C)(C)C)cc2NC(=O)Nc2ccc(CC3CCN(C(=O)c4ccoc4C)CC3)cc2)cc1` [Compound A244, 1-(5-tert-Butyl-2-p-tolyl-2H-pyrazol-3-yl)-3-{4-[1-(2-methyl-furan-3-carbonyl)-piperidin-4-ylmethyl]-phenyl}-urea], the IC50 lay in the range of 10 to 500 nM. Regarding `Cc1ccc(-n2nc(C(C)(C)C)cc2NC(=O)Nc2ccc(CC3CCN(C(=O)c4cc5cccnc5nc4C)CC3)cc2)cc1` [Compound A249, 1-(5-tert-Butyl-2-p-tolyl-2H-pyrazol-3-yl)-3-{4-[1-(2-methyl-[1,8]naphthyridine-3-carbonyl)-piperidin-4-ylmethyl]-phenyl}-urea], the IC50 is 10 to 500 nM.

Turning to `Cc1ccc(-n2nc(C(C)(C)C)cc2NC(=O)Nc2ccc(CC3CCN(C(=O)c4cccnc4C)CC3)cc2)cc1` [Compound A251, 1-(5-tert-Butyl-2-p-tolyl-2H-pyrazol-3-yl)-3-{4-[1-(2-methyl-pyridine-3-carbonyl)-piperidin-4-ylmethyl]-phenyl}-urea], the IC50 is 10 to 500 nM. To `Cc1ccc(-n2nc(C(C)(C)C)cc2NC(=O)Nc2ccc(CC3CCN(C(=O)c4cnc5ccccc5n4)CC3)cc2)cc1` [Compound A257, 1-(5-tert-Butyl-2-p-tolyl-2H-pyrazol-3-yl)-3-{4-[1-(quinoxaline-2-carbonyl)-piperidin-4-ylmethyl]-phenyl}-urea] belongs 10 to 500 nM.
